# Results from BindingDB's records for doi:10.3109/14756366.2013.827675 (Orchid Chemicals & Pharmaceuticals Limited, 2014).
# Biological target: Histone deacetylase 1/11/4/6/8
# Assay: HDAC Activity screening
# Description: Histone Deacetylase (HDAC) Inhibition Assay using Boc-Lys(Ac)-AMC Substrate: Inhibition of HDAC has been implicated to modulate transcription and to induce apoptosis or differentiation in cancer cells. The fluorometric assay provides a fast and fluorescence based method that eliminates radioactivity, extractions or chromatography, as used in traditional assays. The assay is based on two steps. First, the HDAC fluorometric substrate, which comprises an acetylated lysine side chain, is incubated with a sample containing HDAC activity (Mouse Liver Extract). Deacetylation of the substrate sensitizes the substrate; in the second step, treatment with the Trypsin, stop solution produces a fluorophore that can be easily analyzed using fluorescence plate reader. Assay was done in 96-well black microplate and total volume of the assay was […]. Mouse liver enzyme (10 mg/mL) was diluted 1:6 with HDAC buffer. Enzyme cocktail was made of 10 mL of diluted enzyme and 30 mL of HDAC buffer. Forty m
row,Compound,IC50
1,COc1ccc2c(c1)c(=O)c(C(=O)Nc1cc(-c3ccccc3)nn1C)cn2CCCCC(=O)NO [Quinolone-based HDAC inhibitor 4o],10 nM
2,COc1ccc(NC(=O)c2cn(CCCCC(=O)NO)c3ccccc3c2=O)cc1 [Quinolone-based HDAC inhibitor 4c],39 nM
3,O=C(CCCCn1cc(C(=O)Nc2nc3ccccc3s2)c(=O)c2ccccc21)NO [Quinolone-based HDAC inhibitor 4j],1.5 nM
4,O=C(CCCCn1cc(C(=O)Nc2ccncc2)c(=O)c2cc(F)ccc21)NO [Quinolone-based HDAC inhibitor 4u],85 nM
5,O=C(CCCCn1cc(C(=O)NCc2cccs2)c(=O)c2ccccc21)NO [Quinolone-based HDAC inhibitor 4f],390 nM
6,COc1ccc2c(c1)c(=O)c(C(=O)Nc1ccc(F)cc1)cn2CCCCC(=O)NO [Quinolone-based HDAC inhibitor 4l],32 nM
7,Cc1csc(NC(=O)c2cn(CCCCC(=O)NO)c3ccccc3c2=O)n1 [Quinolone-based HDAC inhibitor 4i],0.1 nM
8,O=C(CCCCn1cc(C(=O)Nc2ccc(F)cc2)c(=O)c2cc(F)ccc21)NO [Quinolone-based HDAC inhibitor 4q],40 nM
9,COc1ccc(CNC(=O)c2cn(CCCCC(=O)NO)c3ccc(F)cc3c2=O)cc1 [Quinolone-based HDAC inhibitor 4s],330 nM
10,O=C(CCCCn1cc(C(=O)NC2=CC(c3ccccc3)N=N2)c(=O)c2ccccc21)NO (stereo not drawn) [Quinolone-based HDAC inhibitor 4w],95 nM
11,O=C(CCCCn1cc(C(=O)NCc2ccccc2)c(=O)c2ccccc21)NO [Quinolone-based HDAC inhibitor 4d],120 nM
12,COc1ccc(NC(=O)c2cn(CCCCC(=O)NO)c3ccc(F)cc3c2=O)cc1 [Quinolone-based HDAC inhibitor 4r],28 nM
13,O=C(CCCCn1cc(C(=O)Nc2nc3ccccc3s2)c(=O)c2cc(F)ccc21)NO [Quinolone-based HDAC inhibitor 4v],39 nM
14,COc1ccc2c(c1)c(=O)c(C(=O)Nc1nc3ccccc3s1)cn2CCCCC(=O)NO [Quinolone-based HDAC inhibitor 4p],28 nM
15,COc1ccc2c(c1)c(=O)c(C(=O)Nc1ccccc1)cn2CCCCC(=O)NO [Quinolone-based HDAC inhibitor 4k],32 nM
16,O=C(CCCCn1cc(C(=O)Nc2ccc(F)cc2)c(=O)c2ccccc21)NO [Quinolone-based HDAC inhibitor 4b],270 nM
17,COc1ccc(NC(=O)c2cn(CCCCC(=O)NO)c3ccc(OC)cc3c2=O)cc1 [Quinolone-based HDAC inhibitor 4m],75 nM
18,O=C(CCCCn1cc(C(=O)Nc2nccs2)c(=O)c2ccccc21)NO [Quinolone-based HDAC inhibitor 4h],42 nM
19,COc1ccc(NC(=O)c2cn(CCCCC(=O)NO)c3ccc(F)cc3c2=O)cc1OC [Quinolone-based HDAC inhibitor 4t],230 nM
20,O=C(CCCCn1cc(C(=O)Nc2ccncc2)c(=O)c2ccccc21)NO [Quinolone-based HDAC inhibitor 4g],90 nM
21,COc1ccc(CNC(=O)c2cn(CCCCC(=O)NO)c3ccccc3c2=O)cc1 [Quinolone-based HDAC inhibitor 4e],410 nM
22,COc1ccc2c(c1)c(=O)c(C(=O)Nc1ccc(OC)c(OC)c1)cn2CCCCC(=O)NO [Quinolone-based HDAC inhibitor 4n],150 nM
23,O=C(CCCCn1cc(C(=O)Nc2ccccc2)c(=O)c2ccccc21)NO [Quinolone-based HDAC inhibitor 4a],32 nM
